Assay [1] deals with CDK9/T1 (Homo sapiens, UniProt P50750). Description: ADP Glo Kinase assay CDK9/T1. The class given is biochemical. As to conditions: CDK9T1; read-out: CDK inhibition, Ki (μM) CDK9T1. The method in brief:
(§1)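 Luminescent ADP detection measured activity after a 40 min, 37° C ATP-initiated reaction, using RB-CTF for CDK4/D1 and CDK6/D3 and RBER-IRStide for CDK9/T1. Controls lacked or contained kinase. Values: IC50 by four-parameter nonlinear regression, Ki from ATP Km.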
(ADP-Glo first removes unused ATP, then detects ADP through luciferase.)

Assay [2] has as its target CDK6/D3 (Homo sapiens, UniProt Q00534). Kind of assay: ADP Glo Kinase assay CDK6/D3. The class given is biochemical. The conditions noted are these: CDK6D3; compound at 10 μM; read-out: residual activity (%) at 10 μM CDK6D3. The method in brief: as §1
Assay [3] deals with CDK4/D1 (Homo sapiens, UniProt P11802). Kind of assay: ADP Glo Kinase assay CDK4/D1. In kind it is biochemical. As to conditions: CDK4D1; for remaining activity at 10 µM: compound at 10 μM, read-out: residual activity (%) at 10 μM CDK4D1. The method in brief:
as §1

The test system of assay [4] is leukemia cell lines. Kind of assay: Resazurin cell viability assay on leukemia cell lines (72 h growth inhibition, GI50). In kind it is cell-based. As to conditions: Homo sapiens, MV4-11 cells. The method in brief:
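Viability is measured by MTT in solid tumour cells and by resazurin in leukaemia cells. Reported values are GI50s calculated with non-linear regression analysis.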
In general terms: Resazurin is reduced to fluorescent resorufin, in cell work by metabolically active cells.

Assay [5] deals with T1, CDKs and other kinases (Homo sapiens, UniProt P50613).
T1 construct: other: CDK7H; residual activity (%) at 10 μM CDK7H; compound at 10 μM
Kind of assay: Radiometric kinase assay (Eurofins Pharma Discovery or Reaction Biology Corporation Kinase Profiler). In kind it is biochemical. As to conditions: CDK7H; for remaining activity at 10 µM: compound at 10 μM, read-out: residual activity (%) at 10 μM CDK7H; for Ki: read-out: CDK inhibition, Ki (μM) CDK7H. The method in brief:
(§2)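 Other CDKs and further kinases were profiled externally by radiometric assay. In-house ADP Glo assays covered CDK4/D1 and CDK6/D3 (RB-CTF substrate, pH 7.5 Tris buffer with MgCl2, DTT, BSA) and CDK9/T1 (RBER-IRStide substrate), 40 min at 37° C.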

Assay [6] concerns the target T2, CDKs and other kinases (Homo sapiens, UniProt P24941).
T2 construct: other: CDK2A; residual activity (%) at 10 μM CDK2A; compound at 10 μM
Described as above. In kind it is biochemical. The conditions noted are these: CDK2A; for remaining activity at 10 µM: compound at 10 μM, read-out: residual activity (%) at 10 μM CDK2A; for Ki: read-out: CDK inhibition, Ki (μM) CDK2A. In short, it runs like this:
as §2

The target of assay [7] is T3, CDKs and other kinases (Homo sapiens, UniProt P06493).
T3 construct: other: CDK1B; residual activity (%) at 10 μM CDK1B; compound at 10 μM
The assay is described as above. The class given is biochemical. As to conditions: CDK1B; for remaining activity at 10 µM: compound at 10 μM, read-out: residual activity (%) at 10 μM CDK1B; for Ki: read-out: CDK inhibition, Ki (μM) CDK1B. The method in brief: as §2

T3 sequence (P06493 whole entry): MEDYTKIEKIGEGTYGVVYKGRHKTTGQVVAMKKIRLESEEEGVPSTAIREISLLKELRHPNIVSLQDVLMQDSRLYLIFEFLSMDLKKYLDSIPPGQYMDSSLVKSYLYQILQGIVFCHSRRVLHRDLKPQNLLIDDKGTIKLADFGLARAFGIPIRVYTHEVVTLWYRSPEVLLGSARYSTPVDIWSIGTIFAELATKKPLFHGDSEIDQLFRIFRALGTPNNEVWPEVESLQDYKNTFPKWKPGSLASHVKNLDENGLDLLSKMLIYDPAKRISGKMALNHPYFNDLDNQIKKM
T1 sequence (P50613 whole entry): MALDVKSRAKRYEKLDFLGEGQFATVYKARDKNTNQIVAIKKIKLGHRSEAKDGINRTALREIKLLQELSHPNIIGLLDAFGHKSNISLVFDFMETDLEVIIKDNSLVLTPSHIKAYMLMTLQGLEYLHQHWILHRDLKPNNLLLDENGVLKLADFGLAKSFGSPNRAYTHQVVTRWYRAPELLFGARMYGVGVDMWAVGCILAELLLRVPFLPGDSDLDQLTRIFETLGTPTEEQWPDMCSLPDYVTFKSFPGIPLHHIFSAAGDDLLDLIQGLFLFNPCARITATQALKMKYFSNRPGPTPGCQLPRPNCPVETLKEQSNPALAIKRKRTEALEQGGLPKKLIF
Chain of CDK6/D3 (Q00534 whole entry): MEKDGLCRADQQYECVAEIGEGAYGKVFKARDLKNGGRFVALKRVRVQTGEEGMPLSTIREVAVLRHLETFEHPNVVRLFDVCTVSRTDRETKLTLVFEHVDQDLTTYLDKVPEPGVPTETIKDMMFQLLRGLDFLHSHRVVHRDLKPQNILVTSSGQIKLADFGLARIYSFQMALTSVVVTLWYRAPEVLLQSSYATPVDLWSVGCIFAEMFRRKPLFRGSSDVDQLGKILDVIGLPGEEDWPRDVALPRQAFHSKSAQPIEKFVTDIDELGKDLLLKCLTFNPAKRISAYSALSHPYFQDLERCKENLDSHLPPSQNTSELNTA
Chain of CDK6/D3 (P30281 whole entry partner): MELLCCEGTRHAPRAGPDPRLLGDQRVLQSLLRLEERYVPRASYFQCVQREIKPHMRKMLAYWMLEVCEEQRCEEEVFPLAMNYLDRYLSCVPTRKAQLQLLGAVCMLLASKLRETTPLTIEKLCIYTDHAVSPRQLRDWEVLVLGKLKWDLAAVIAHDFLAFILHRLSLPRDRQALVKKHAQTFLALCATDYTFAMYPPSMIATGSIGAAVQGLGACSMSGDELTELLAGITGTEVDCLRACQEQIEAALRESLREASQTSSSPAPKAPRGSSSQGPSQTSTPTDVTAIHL
Chain of CDK9/T1 (P50750 whole entry): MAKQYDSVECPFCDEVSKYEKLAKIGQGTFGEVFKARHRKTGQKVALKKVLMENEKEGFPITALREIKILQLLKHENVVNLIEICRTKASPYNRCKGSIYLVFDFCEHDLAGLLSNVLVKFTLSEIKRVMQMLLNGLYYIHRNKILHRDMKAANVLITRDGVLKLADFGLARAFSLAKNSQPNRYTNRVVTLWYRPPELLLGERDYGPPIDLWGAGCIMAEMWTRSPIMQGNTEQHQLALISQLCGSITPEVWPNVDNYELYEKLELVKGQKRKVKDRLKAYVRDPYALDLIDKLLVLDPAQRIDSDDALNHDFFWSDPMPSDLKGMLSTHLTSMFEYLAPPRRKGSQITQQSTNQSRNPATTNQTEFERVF
Chain of CDK9/T1 (O60563 whole entry partner): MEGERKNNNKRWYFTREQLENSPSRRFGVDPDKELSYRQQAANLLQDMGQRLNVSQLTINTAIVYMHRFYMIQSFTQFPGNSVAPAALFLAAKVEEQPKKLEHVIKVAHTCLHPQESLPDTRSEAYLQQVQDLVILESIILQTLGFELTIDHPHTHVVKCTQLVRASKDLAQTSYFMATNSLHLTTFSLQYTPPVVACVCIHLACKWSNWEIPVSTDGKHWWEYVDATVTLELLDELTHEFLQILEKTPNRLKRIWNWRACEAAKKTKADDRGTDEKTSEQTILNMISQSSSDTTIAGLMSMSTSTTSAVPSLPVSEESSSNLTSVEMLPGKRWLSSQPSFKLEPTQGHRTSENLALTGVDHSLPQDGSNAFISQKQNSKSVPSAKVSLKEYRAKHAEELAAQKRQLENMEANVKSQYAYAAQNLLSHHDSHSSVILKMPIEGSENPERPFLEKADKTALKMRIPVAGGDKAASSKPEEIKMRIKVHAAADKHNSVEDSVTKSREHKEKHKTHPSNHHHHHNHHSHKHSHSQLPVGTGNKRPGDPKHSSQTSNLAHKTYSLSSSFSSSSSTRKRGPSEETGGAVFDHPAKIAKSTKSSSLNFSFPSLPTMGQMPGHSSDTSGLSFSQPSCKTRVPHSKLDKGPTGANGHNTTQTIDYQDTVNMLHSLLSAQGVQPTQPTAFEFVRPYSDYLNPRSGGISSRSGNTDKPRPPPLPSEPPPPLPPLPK
Chain of CDK4/D1 (P11802 whole entry): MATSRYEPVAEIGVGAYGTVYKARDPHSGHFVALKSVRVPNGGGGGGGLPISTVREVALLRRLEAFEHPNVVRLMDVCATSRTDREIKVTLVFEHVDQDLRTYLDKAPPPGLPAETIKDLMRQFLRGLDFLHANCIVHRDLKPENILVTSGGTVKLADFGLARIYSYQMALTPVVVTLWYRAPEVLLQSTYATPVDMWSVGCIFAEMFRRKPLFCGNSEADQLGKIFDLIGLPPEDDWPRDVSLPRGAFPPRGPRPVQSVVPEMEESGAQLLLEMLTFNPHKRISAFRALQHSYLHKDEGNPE
Chain of CDK4/D1 (P24385 whole entry partner): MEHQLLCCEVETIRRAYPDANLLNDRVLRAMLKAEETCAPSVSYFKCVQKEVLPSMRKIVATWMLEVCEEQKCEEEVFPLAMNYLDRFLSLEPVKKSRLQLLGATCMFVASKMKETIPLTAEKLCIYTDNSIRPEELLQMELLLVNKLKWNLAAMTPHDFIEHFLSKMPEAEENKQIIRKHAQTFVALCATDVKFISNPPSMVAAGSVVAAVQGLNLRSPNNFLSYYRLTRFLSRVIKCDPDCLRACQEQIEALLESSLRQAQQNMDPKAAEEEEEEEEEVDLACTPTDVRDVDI

As usually defined, the Ki is a dissociation constant, usually derived from enzyme kinetics or from competition with a known ligand. As usually defined, the GI50 is the concentration giving 50% growth inhibition. On to `COc1cccc(-c2ccc3ncc(-c4nc(N[C@H]5CC[C@H](N)CC5)ncc4C)n3c2)c1` [Compound 57, (1r,4r)-N^1-(4-(6-(3-Methoxyphenyl)imidazo[1,2-a]pyridin-3-yl)-5-methylpyrimidin-2-yl)cyclohexane-1,4-diamine], for which, in assay [1], the Ki was determined as 0.069 µM. For the same compound, the remaining activity at 10 µM in assay [2] is 39%; in assay [3], 45%; in assay [5], 17%; in assay [6], 31%; in assay [7], 47%. Also, growth in assay [4] was halved (GI50) at 0.067 ± 0.014 µM.

As for `COc1ccc(-c2ccc3ncc(-c4nc(N[C@H]5CC[C@H](N)CC5)ncc4C)n3c2)cn1` [Compound 58, (1r,4r)-N^1-(4-(6-(6-Methoxypyridin-3-yl)imidazo[1,2-a]pyridin-3-yl)-5-methylpyrimidin-2-yl)cyclohexane-1,4-diamine], in assay [1], the Ki was 0.17 µM. For the same compound, the remaining activity at 10 µM is 86% in assay [2]; 69% in assay [3]; 22% in assay [5]; 70% in assay [6]; 71% in assay [7]. In assay [4], this compound returned a GI50 of 0.177 ± 0.005 µM.

Consider `Cc1cnc(N[C@H]2CC[C@H](N)CC2)nc1-c1cnc2ccc(-c3c(C)noc3C)cn12` [Compound 59, (1r,4r)-N^1-(4-(6-(3,5-Dimethylisoxazol-4-yl)imidazo [1,2-a]pyridin-3-yl)-5-methylpyrimidin-2-yl) cyclohexane-1,4-diamine], for which the Ki in assay [1] came out at 0.072 µM; in assay [5], 2.39 µM; in assay [6], 0.92 µM; in assay [7] it was 2.68 µM. For the same compound, the remaining activity at 10 µM in assay [2] was 91%; in assay [3] it was 55%. In assay [4], this compound registered a GI50 of 0.274 ± 0.064 µM.

For orientation: residual activity means the signal under treatment as a percentage of the control signal. Regarding `Cc1cnc(N[C@H]2CC[C@H](N)CC2)nc1-c1cnc2ccc(-c3ccc(CN4CCOCC4)cc3)cn12` [Compound 60, (1r,4r)-N^1-(5-Methyl-4-(6-(4-(morpholinomethyl)phenyl)imidazo[1,2-a]pyridin-3-yl)pyrimidin-2-yl)cyclohexane-1,4-diamine], the Ki in assay [1] stood at 0.41 µM. Moreover, the remaining activity at 10 µM in assay [2] was 89%; in assay [5], 37%; in assay [6], 62%; in assay [7], 57%. In addition, the residual activity at 10 µM in assay [3] was found to be 115%. In assay [4], this compound had a GI50 of 0.057 ± 0.006 µM.

For the compound `Cc1cnc(N[C@H]2CC[C@H](N)CC2)nc1-c1cnc2ccc(-c3ccc(N4CCOCC4)nc3)cn12` [Compound 61, (1r,4r)-N^1-(5-Methyl-4-(6-(6-morpholinopyridin-3-yl)imidazo[1,2-a]pyridin-3-yl)pyrimidin-2-yl)cyclohexane-1,4-diamine], the Ki in assay [1] is 0.49 µM. The remaining activity at 10 µM in assay [2] came to 89%; in assay [3], 17%; in assay [5], 37%; in assay [6], 63%; in assay [7], 79%. Moreover, the concentration for 50% growth inhibition (GI50) in assay [4] came out at 0.083 ± 0.035 µM.

As to `Cc1cnc(N[C@H]2CC[C@H](N)CC2)nc1-c1cnc2ccc(-c3ccc(S(=O)(=O)N(C)C)cc3)cn12` [Compound 62, 4-(3-(2-(((1r,4r)-4-Aminocyclohexyl)amino)-5-methylpyrimidin-4-yl)imidazo[1,2-a]pyridin-6-yl)-N,N-dimethylbenzenesulfonamide], the Ki in assay [1] stood at 0.497 µM. Besides, the remaining activity at 10 µM in assay [2] stood at 87%; in assay [3], 63%; in assay [5] it was 60%; in assay [6], 72%; in assay [7], 87%. This compound also registered a GI50 in assay [4] of 0.025 ± 0.009 µM.

With `Cc1cnc(N[C@H]2CC[C@H](N)CC2)nc1-c1cnc2ccc(-c3ccoc3)cn12` [Compound 63, (1r,4r)-N^1-(4-(6-(Furan-3-yl)imidazo[1,2-a]pyridin-3-yl)-5-methylpyrimidin-2-yl)cyclohexane-1,4-diamine], the Ki in assay [1] came to 0.054 µM. In addition, the remaining activity at 10 µM in assay [2] came to 29%; in assay [3], 38%; in assay [5], 18%; in assay [6], 6%; in assay [7], 18%. Further, the GI50 in assay [4] came out at 0.095 ± 0.031 µM.

Consider `Cc1cncc(Nc2ccc3ncc(-c4nc(N[C@H]5CC[C@H](N)CC5)ncc4C)n3c2)c1` [Compound 64, (1r,4r)-N^1-(5-Methyl-4-(6-((5-methylpyridin-3-yl)amino)imidazo[1,2-a]pyridin-3-yl)pyrimidin-2-yl)cyclohexane-1,4-diamine], for which the Ki in assay [1] was 0.016 µM; in assay [5] it was 1.44 µM; in assay [6] it was 0.59 µM; in assay [7] it was 2.37 µM. The remaining activity at 10 µM stood at 38% in assay [2] and 1% in assay [3]. Also, in assay [4], the 50% growth inhibitory concentration (GI50) worked out at 0.155 ± 0.054 µM.

On to `CCOc1ccc(Nc2ccc3ncc(-c4nc(N[C@H]5CC[C@H](N)CC5)ncc4C)n3c2)cn1` [Compound 67, (1r,4r)-N^1-(4-(6-((6-Ethoxypyridin-3-yl)amino)imidazo [1,2-a]pyridin-3-yl)-5-methylpyrimidin-2-yl)cyclohexane-1,4-diamine], for which the Ki in assay [1] was 0.017 µM. Besides, the remaining activity at 10 µM worked out at 29% in assay [2]; 31% in assay [3]; 52% in assay [5]; 10% in assay [6]; 38% in assay [7]. In assay [4], this compound displayed a GI50 of 0.128 ± 0.04 µM.

As to `Cc1cnc(N[C@H]2CC[C@H](N)CC2)nc1-c1cnc2ccc(Nc3ccc(OC(F)F)nc3)cn12` [Compound 68, (1r,4r)-N^1-(4-(6-((6-(Difluoromethoxy)pyridin-3-yl)amino)imidazo[1,2-a]pyridin-3-yl)-5-methylpyrimidin-2-yl) cyclohexane-1,4-diamine], the Ki is 0.033 µM in assay [1], 0.71 µM in assay [5], 0.35 µM in assay [6] and 2.18 µM in assay [7]. The remaining activity at 10 µM in assay [2] was determined as 23%; in assay [3], 37%. Also, halving of growth in assay [4] (GI50) required 0.127 ± 0.002 µM.

For the compound `Cc1ccc(Nc2ccc3ncc(-c4nc(N[C@H]5CC[C@H](N)CC5)ncc4C)n3c2)cn1` [Compound 69, (1r,4r)-N^1-(5-Methyl-4-(6-((6-methylpyridin-3-yl)amino)imidazo[1,2-a]pyridin-3-yl)pyrimidin-2-yl)cyclohexane-1,4-diamine], the inhibition constant Ki in assay [1] worked out at 0.023 µM; in assay [5], 0.95 µM; in assay [6] it was 0.61 µM; in assay [7], 2.95 µM. The remaining activity at 10 µM was found to be 25% in assay [2] and 24% in assay [3]. Further, the GI50 in assay [4] came out at 0.199 ± 0.02 µM.

With `Cc1cnc(N[C@H]2CC[C@H](N)CC2)nc1-c1cnc2ccc(Nc3cnccn3)cn12` [Compound 70, (1r,4r)-N^1-(5-Methyl-4-(6-(pyrazin-2-ylamino)imidazo [1,2-a]pyridin-3-yl)pyrimidin-2-yl)cyclohexane-1,4-diamine], the Ki was determined as 0.62 µM in assay [1], 3.28 µM in assay [5], 1.42 µM in assay [6] and 4.32 µM in assay [7]. Also, the remaining activity at 10 µM in assay [2] amounted to 70%; in assay [3], 31%. The GI50 in assay [4] was determined as 0.212 ± 0.104 µM.

As to `Cc1cnc(N[C@H]2CC[C@H](N)CC2)nc1-c1cnc2ccc(Nc3cccnn3)cn12` [Compound 71, (1r,4r)-N^1-(5-Methyl-4-(6-(pyridazin-3-ylamino)imidazo [1,2-a]pyridin-3-yl)pyrimidin-2-yl)cyclohexane-1,4-diamine], the Ki in assay [1] came out at 0.203 µM; in assay [5], 5.19 µM; in assay [6], 2.66 µM; in assay [7], 6.05 µM. Besides, the remaining activity at 10 µM in assay [2] stood at 66%; in assay [3], 35%. The concentration for 50% growth inhibition (GI50) in assay [4] came out at 0.383 ± 0.119 µM.

The values above are taken from patent US11111245B2, “Derivatives of N-cycloalkyl/heterocycloalkyl-4-(imidazo[1,2-a]pyridine)pyrimidin-2-amine as therapeutic agents” (Aucentra Therapeutics Pty Ltd, priority 2017, dated 2021).
